Assay results taken from ChEMBL document CHEMBL4507287, “Data for DCP probe MRL-650” (2021).

Key:
[1] = biological target: Mitogen-activated protein kinase 11 (Homo sapiens) (UniProt Q15759); details: Compound concentration 1000.0 nM
[2] = biological target: Ribosomal protein S6 kinase alpha-1 (Homo sapiens) (UniProt Q15418); details: Compound concentration 1000.0 nM
[3] = biological target: Ephrin type-B receptor 6 (Homo sapiens) (UniProt O15197); details: Compound concentration 1000.0 nM
[4] = biological target: Aurora kinase A (Homo sapiens) (UniProt O14965); details: Compound concentration 1000.0 nM
[5] = biological target: Muscarinic acetylcholine receptor M5 (Homo sapiens) (UniProt P08912); details: Compound concentration 10.0 uM
[6] = biological target: Calcium/calmodulin-dependent protein kinase type 1 (Homo sapiens) (UniProt Q14012); details: Compound concentration 1000.0 nM
[7] = biological target: Serine/threonine-protein kinase pim-1 (Homo sapiens) (UniProt P11309); details: Compound concentration 1000.0 nM
[8] = biological target: SRSF protein kinase 3 (Homo sapiens) (UniProt Q9UPE1); details: Compound concentration 1000.0 nM
[9] = biological target: cAMP-dependent protein kinase catalytic subunit beta (Homo sapiens) (UniProt P22694); details: Compound concentration 1000.0 nM
[10] = biological target: Interleukin-1 receptor-associated kinase 4 (Homo sapiens) (UniProt Q9NWZ3); details: Compound concentration 1000.0 nM
[11] = biological target: D(4) dopamine receptor (Homo sapiens) (UniProt P21917); details: Compound concentration 10.0 uM
[12] = biological target: Serine/threonine-protein kinase LATS2 (Homo sapiens) (UniProt Q9NRM7); details: Compound concentration 1000.0 nM
[13] = biological target: Serine/threonine-protein kinase TBK1 (Homo sapiens) (UniProt Q9UHD2); details: Compound concentration 1000.0 nM
[14] = biological target: 5'-AMP-activated protein kinase catalytic subunit alpha-2 (Homo sapiens) (UniProt P54646); details: Compound concentration 1000.0 nM
[15] = biological target: Leukocyte tyrosine kinase receptor (Homo sapiens) (UniProt P29376); details: Compound concentration 1000.0 nM
Sequence of Leukocyte tyrosine kinase receptor (Homo sapiens) (P29376 whole entry): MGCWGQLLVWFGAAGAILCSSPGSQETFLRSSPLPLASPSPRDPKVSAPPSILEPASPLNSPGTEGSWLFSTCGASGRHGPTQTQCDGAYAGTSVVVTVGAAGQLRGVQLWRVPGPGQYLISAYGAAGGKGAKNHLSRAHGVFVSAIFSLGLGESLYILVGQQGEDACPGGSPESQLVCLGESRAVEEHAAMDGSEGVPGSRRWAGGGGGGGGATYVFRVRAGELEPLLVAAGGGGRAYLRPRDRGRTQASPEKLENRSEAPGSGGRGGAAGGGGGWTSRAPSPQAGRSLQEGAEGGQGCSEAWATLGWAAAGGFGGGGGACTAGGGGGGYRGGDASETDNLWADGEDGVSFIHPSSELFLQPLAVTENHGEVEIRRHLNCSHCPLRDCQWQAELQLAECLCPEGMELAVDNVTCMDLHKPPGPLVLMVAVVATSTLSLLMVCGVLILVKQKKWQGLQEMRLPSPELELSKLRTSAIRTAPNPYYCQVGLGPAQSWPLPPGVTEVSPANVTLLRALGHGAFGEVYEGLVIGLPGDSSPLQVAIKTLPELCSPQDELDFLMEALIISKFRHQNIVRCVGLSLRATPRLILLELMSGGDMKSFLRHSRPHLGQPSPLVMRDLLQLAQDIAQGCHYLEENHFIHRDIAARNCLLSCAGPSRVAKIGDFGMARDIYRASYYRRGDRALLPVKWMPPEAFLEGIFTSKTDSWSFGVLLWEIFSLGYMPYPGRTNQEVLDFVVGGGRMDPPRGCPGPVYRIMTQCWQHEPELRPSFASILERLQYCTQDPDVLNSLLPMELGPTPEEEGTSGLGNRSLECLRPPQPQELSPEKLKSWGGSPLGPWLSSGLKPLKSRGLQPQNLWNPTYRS

[16] = biological target: Tyrosine-protein kinase HCK (Homo sapiens) (UniProt P08631); details: Compound concentration 1000.0 nM
[17] = biological target: 5-hydroxytryptamine receptor 5A (Homo sapiens) (UniProt P47898); details: Compound concentration 10.0 uM
[18] = biological target: Dual specificity protein kinase TTK (Homo sapiens) (UniProt P33981); details: Compound concentration 1000.0 nM
[19] = biological target: Mitogen-activated protein kinase kinase kinase 6 (Homo sapiens) (UniProt O95382); details: Compound concentration 1000.0 nM
Sequence of Mitogen-activated protein kinase kinase kinase 6 (Homo sapiens) (O95382 whole entry): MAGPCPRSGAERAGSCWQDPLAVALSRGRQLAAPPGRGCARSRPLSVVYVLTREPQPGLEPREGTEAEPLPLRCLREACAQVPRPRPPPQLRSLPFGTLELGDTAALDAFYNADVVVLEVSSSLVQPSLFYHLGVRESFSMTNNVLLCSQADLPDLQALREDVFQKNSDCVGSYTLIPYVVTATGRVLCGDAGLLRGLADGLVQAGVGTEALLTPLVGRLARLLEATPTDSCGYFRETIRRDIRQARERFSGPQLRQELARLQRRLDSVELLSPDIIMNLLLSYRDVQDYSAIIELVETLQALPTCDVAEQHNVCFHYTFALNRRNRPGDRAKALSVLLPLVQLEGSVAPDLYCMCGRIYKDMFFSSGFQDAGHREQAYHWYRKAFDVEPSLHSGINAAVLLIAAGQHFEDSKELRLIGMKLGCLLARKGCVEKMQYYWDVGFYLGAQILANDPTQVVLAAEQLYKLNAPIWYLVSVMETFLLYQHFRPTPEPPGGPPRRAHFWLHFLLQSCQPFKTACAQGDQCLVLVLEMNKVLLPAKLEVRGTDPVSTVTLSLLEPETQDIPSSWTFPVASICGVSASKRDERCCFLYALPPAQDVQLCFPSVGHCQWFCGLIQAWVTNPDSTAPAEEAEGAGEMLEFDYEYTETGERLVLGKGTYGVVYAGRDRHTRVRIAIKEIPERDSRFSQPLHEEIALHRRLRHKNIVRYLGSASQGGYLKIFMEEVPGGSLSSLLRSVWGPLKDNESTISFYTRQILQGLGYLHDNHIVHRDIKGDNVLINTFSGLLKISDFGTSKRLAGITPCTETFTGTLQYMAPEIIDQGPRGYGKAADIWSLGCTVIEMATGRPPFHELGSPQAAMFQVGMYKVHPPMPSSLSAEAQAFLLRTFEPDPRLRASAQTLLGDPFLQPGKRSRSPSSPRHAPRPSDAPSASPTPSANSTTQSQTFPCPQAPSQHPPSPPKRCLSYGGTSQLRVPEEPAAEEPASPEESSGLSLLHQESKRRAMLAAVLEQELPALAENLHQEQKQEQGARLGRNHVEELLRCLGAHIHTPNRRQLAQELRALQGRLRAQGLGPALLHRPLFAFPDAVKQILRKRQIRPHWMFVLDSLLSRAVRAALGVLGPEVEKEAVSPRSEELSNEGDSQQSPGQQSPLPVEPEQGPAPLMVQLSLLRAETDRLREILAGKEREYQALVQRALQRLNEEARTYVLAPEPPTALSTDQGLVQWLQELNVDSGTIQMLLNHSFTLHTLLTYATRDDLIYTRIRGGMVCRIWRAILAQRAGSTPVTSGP

[20] = biological target: Mitogen-activated protein kinase 7 (Homo sapiens) (UniProt Q13164); details: Compound concentration 1000.0 nM
[21] = biological target: Phosphatidylinositol 3-kinase C2 domain-containing subunit gamma (Homo sapiens) (UniProt O75747); details: Compound concentration 1000.0 nM
[22] = biological target: Macrophage colony-stimulating factor 1 receptor (Homo sapiens) (UniProt P07333); details: Compound concentration 1000.0 nM
[23] = biological target: Casein kinase I isoform gamma-3 (Homo sapiens) (UniProt Q9Y6M4); details: Compound concentration 1000.0 nM
[24] = system: Tyrosine-protein kinase ABL1 (Homo sapiens), P00519 [Q252H]; details: Compound concentration 1000.0 nM
[25] = biological target: Serine/threonine-protein kinase WNK1 (Homo sapiens) (UniProt Q9H4A3); details: Compound concentration 1000.0 nM
[26] = biological target: Protein kinase C epsilon type (Homo sapiens) (UniProt Q02156); details: Compound concentration 1000.0 nM
[27] = biological target: Serine/threonine-protein kinase Sgk1 (Homo sapiens) (UniProt O00141); details: Compound concentration 1000.0 nM
[28] = biological target: Serine/threonine-protein kinase DCLK2 (Homo sapiens) (UniProt Q8N568); details: Compound concentration 1000.0 nM
[29] = biological target: Mitogen-activated protein kinase kinase kinase kinase 5 (Homo sapiens) (UniProt Q9Y4K4); details: Compound concentration 1000.0 nM
[30] = system: Phosphatidylinositol 4,5-bisphosphate 3-kinase catalytic subunit alpha isoform (Homo sapiens), P42336 [H1047L]; details: Compound concentration 1000.0 nM
[31] = biological target: Wee1-like protein kinase (Homo sapiens) (UniProt P30291); details: Compound concentration 1000.0 nM
[32] = biological target: Fibroblast growth factor receptor 1 (Homo sapiens) (UniProt P11362); details: Compound concentration 1000.0 nM
[33] = biological target: Serine/threonine-protein kinase MARK1 (Homo sapiens) (UniProt Q9P0L2); details: Compound concentration 1000.0 nM
[34] = biological target: Membrane-associated tyrosine- and threonine-specific cdc2-inhibitory kinase (Homo sapiens) (UniProt Q99640); details: Compound concentration 1000.0 nM
[35] = biological target: Serine/threonine-protein kinase Chk1 (Homo sapiens) (UniProt O14757); details: Compound concentration 1000.0 nM
[36] = biological target: Mitogen-activated protein kinase kinase kinase 13 (Homo sapiens) (UniProt O43283); details: Compound concentration 1000.0 nM
Sequence of Mitogen-activated protein kinase kinase kinase 13 (Homo sapiens) (O43283 whole entry): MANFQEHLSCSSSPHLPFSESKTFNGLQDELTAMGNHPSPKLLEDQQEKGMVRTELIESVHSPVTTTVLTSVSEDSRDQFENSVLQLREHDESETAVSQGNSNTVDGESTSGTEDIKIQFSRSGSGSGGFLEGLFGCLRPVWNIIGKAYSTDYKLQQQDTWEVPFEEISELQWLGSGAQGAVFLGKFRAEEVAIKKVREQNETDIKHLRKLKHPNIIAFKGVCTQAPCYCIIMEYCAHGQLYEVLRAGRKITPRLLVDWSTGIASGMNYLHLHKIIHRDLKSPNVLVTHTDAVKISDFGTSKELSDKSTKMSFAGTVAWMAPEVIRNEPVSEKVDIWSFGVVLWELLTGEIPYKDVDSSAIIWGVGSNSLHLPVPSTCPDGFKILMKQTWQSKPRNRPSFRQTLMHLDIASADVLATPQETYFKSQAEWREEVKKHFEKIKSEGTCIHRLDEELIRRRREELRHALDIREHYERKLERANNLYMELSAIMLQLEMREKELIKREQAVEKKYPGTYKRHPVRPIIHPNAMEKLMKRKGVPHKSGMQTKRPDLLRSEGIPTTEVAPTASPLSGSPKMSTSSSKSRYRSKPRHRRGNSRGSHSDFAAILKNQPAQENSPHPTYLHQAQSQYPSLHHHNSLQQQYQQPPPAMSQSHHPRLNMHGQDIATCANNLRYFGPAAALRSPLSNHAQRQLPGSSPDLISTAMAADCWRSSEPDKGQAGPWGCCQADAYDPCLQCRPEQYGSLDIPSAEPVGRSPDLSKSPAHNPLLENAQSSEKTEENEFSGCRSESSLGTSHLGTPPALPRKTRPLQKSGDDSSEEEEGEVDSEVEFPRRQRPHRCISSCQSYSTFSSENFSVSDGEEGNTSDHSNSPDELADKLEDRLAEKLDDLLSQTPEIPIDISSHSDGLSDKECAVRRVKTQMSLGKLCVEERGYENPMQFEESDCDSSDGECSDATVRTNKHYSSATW

[37] = biological target: Macrophage-stimulating protein receptor (Homo sapiens) (UniProt Q04912); details: Compound concentration 1000.0 nM
Sequence of Macrophage-stimulating protein receptor (Homo sapiens) (Q04912 25-304 limits assumed): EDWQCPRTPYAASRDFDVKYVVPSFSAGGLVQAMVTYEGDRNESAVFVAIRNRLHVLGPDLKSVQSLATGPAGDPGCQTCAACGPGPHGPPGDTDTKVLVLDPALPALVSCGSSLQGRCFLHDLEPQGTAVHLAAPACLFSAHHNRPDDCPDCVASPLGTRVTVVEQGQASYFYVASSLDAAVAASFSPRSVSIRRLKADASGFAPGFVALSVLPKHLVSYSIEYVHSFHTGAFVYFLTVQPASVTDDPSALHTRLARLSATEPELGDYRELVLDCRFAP
Sequence of Macrophage-stimulating protein receptor (Homo sapiens) (Q04912 310-1400 limits assumed): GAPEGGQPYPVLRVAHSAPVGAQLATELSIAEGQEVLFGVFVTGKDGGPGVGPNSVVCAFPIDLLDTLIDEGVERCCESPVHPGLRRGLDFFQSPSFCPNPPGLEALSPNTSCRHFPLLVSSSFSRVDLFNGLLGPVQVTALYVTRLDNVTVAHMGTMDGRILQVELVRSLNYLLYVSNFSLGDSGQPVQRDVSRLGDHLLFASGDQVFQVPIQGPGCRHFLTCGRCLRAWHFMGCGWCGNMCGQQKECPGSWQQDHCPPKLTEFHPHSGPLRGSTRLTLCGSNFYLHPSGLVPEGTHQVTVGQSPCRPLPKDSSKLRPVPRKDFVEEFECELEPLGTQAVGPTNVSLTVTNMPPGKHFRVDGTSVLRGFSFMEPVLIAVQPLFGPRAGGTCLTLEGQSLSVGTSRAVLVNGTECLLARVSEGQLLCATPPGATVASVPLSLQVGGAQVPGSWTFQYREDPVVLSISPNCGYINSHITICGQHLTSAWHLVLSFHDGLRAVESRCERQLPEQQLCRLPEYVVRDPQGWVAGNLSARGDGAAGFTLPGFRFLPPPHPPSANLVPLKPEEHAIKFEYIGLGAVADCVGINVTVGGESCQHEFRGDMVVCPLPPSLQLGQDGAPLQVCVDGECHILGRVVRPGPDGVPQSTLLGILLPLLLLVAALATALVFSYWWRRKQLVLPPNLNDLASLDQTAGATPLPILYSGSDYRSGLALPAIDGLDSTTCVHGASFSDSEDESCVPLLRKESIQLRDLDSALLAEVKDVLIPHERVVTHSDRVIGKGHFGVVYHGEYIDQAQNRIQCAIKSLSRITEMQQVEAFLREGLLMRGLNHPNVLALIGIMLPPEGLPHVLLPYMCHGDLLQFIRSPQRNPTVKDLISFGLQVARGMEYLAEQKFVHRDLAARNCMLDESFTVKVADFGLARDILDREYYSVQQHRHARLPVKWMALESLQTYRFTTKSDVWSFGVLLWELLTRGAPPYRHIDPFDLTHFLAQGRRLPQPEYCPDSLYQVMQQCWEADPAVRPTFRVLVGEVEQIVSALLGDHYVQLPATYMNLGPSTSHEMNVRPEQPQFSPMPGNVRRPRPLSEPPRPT

[38] = biological target: Serine/threonine-protein kinase Nek5 (Homo sapiens) (UniProt Q6P3R8); details: Compound concentration 1000.0 nM
[39] = biological target: Serine/threonine-protein kinase RIO2 (Homo sapiens) (UniProt Q9BVS4); details: Compound concentration 1000.0 nM
[40] = system: Receptor-type tyrosine-protein kinase FLT3 (Homo sapiens), P36888 [UNDEFINED MUTATION]; details: Compound concentration 1000.0 nM
[41] = biological target: Serine/threonine-protein kinase Sgk2 (Homo sapiens) (UniProt Q9HBY8); details: Compound concentration 1000.0 nM
Sequence of Serine/threonine-protein kinase Sgk2 (Homo sapiens) (Q9HBY8 whole entry): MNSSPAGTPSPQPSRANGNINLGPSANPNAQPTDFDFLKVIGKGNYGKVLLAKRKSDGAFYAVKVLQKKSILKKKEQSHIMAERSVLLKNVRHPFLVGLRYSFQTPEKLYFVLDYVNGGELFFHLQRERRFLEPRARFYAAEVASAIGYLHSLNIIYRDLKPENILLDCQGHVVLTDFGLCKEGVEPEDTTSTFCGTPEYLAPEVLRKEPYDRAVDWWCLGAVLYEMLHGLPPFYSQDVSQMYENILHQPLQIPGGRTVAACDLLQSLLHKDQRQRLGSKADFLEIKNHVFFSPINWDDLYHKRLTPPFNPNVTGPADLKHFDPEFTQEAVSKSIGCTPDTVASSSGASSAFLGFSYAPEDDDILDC

[42] = biological target: STE20/SPS1-related proline-alanine-rich protein kinase (Homo sapiens) (UniProt Q9UEW8); details: Compound concentration 1000.0 nM
[43] = biological target: Mitogen-activated protein kinase kinase kinase kinase 1 (Homo sapiens) (UniProt Q92918); details: Compound concentration 1000.0 nM
[44] = biological target: Mitogen-activated protein kinase kinase kinase 15 (Homo sapiens) (UniProt Q6ZN16); details: Compound concentration 1000.0 nM
[45] = biological target: Platelet-derived growth factor receptor alpha (Homo sapiens) (UniProt P16234); details: Compound concentration 1000.0 nM

CC(=O)Nc1c(C(C)=O)c(=O)n(C)c2nc(-c3ccc(Cl)cc3Cl)c(-c3ccc(Cl)cc3)cc12 [NAPHTHYRIDINONE]
residual activity [1]: 93%
residual activity [2]: 100%
residual activity [3]: 100%
residual activity [4]: 100%
inhibition [5]: -4.54%
residual activity [6]: 100%
residual activity [7]: 100%
residual activity [8]: 100%
residual activity [9]: 100%
residual activity [10]: 100%
inhibition [11]: 22.7%
residual activity [12]: 100%
residual activity [13]: 81%
residual activity [14]: 100%
residual activity [15]: 100%
residual activity [16]: 100%
inhibition [17]: 14.3%
residual activity [18]: 100%
residual activity [19]: 94%
residual activity [20]: 100%
residual activity [21]: 63%
residual activity [22]: 100%
residual activity [23]: 100%
residual activity [24]: 72%
residual activity [25]: 100%
residual activity [26]: 48%
residual activity [27]: 100%
residual activity [28]: 100%
residual activity [29]: 100%
residual activity [30]: 95%
residual activity [31]: 100%
residual activity [32]: 100%
residual activity [33]: 100%
residual activity [34]: 100%
residual activity [35]: 100%
residual activity [36]: 100%
residual activity [37]: 100%
residual activity [38]: 100%
residual activity [39]: 100%
residual activity [40]: 100%
residual activity [41]: 100%
residual activity [42]: 100%
residual activity [43]: 91%
residual activity [44]: 100%
residual activity [45]: 100%

CC(=O)c1c(NS(C)(=O)=O)c2cc(-c3ccc(Cl)cc3)c(-c3ccc(Cl)cc3Cl)nc2n(C)c1=O [MRL-CB1-NC]
residual activity [1]: 100%
residual activity [2]: 93%
residual activity [3]: 100%
residual activity [4]: 87%
inhibition [5]: -4.92%
residual activity [6]: 100%
residual activity [7]: 90%
residual activity [8]: 100%
residual activity [9]: 92%
residual activity [10]: 95%
inhibition [11]: 17.1%
residual activity [12]: 78%
residual activity [13]: 92%
residual activity [14]: 85%
residual activity [15]: 100%
residual activity [16]: 100%
inhibition [17]: 39.9%
residual activity [18]: 100%
residual activity [19]: 83%
residual activity [20]: 92%
residual activity [21]: 91%
residual activity [22]: 100%
residual activity [23]: 100%
residual activity [24]: 76%
residual activity [25]: 88%
residual activity [26]: 96%
residual activity [27]: 100%
residual activity [28]: 96%
residual activity [29]: 100%
residual activity [30]: 96%
residual activity [31]: 95%
residual activity [32]: 97%
residual activity [33]: 100%
residual activity [34]: 99%
residual activity [35]: 100%
residual activity [36]: 71%
residual activity [37]: 88%
residual activity [38]: 100%
residual activity [39]: 100%
residual activity [40]: 98%
residual activity [41]: 92%
residual activity [42]: 92%
residual activity [43]: 100%
residual activity [44]: 91%
residual activity [45]: 88%
